Assay results: ChEMBL document CHEMBL1141344, “Variation in cytostatic constituents of a sponge-derived Gymnascella dankaliensis by manipulating the carbon source” (2007)
Converted amounts (≈) assume the structure as drawn.

Columns and labels:
Type in all cases: functional
ACHN = assay: Cytotoxicity against human ACHN cells
St-4 = assay: Cytotoxicity against human St4 cells
[1] = Cytotoxicity against human MKN1 cells; conditions: MKN-1
MKN-7 = assay: Cytotoxicity against human MKN7 cells
MKN-28 = assay: Cytotoxicity against human MKN28 cells
MKN-45 = assay: Cytotoxicity against human MKN45 cells
MKN-74 = assay: Cytotoxicity against human MKN74 cells
DU-145 = assay: Cytotoxicity against human DU145 cells
OVCAR-5 = assay: Cytotoxicity against human OVCAR5 cells
PC-3 = assay: Cytotoxicity against human PC3 cells
P388 = assay: Growth inhibition of mouse P388 cells; conditions: read-out: ED50 (the source's name)
[2] = Cytotoxicity against human HBC4 cells
[3] = Cytotoxicity against human BSY1 cells; conditions: BSY-1
[4] = Cytotoxicity against human HBC5 cells
MCF7 = assay: Cytotoxicity against human MCF7 cells
MDA-MB-231 = assay: Cytotoxicity against human MDA-MB-231 cells
U-251 = assay: Cytotoxicity against human U251 cells
SF-268 = assay: Cytotoxicity against human SF268 cells
SF-295 = assay: Cytotoxicity against human SF295 cells
SF-539 = assay: Cytotoxicity against human SF539 cells
SNB-75 = assay: Cytotoxicity against human SNB75 cells
SNB-78 = assay: Cytotoxicity against human SNB78 cells
HCC 2998 = assay: Cytotoxicity against human HCC2998 cells
KM12 = assay: Cytotoxicity against human KM12 cells
HT-29 = assay: Cytotoxicity against human HT29 cells
HCT-15 = assay: Cytotoxicity against human HCT15 cells
HCT-116 = assay: Cytotoxicity against human HCT116 cells
NCI-H23 = assay: Cytotoxicity against human NCI-H23 cells
NCI-H226 = assay: Cytotoxicity against human NCI-H226 cells
NCI-H522 = assay: Cytotoxicity against human NCI-H522 cells
NCI-H460 = assay: Cytotoxicity against human NCI-H460 cells
A549 = assay: Cytotoxicity against human A549 cells
DMS-273 = assay: Cytotoxicity against human DMS273 cells
DMS-114 = assay: Cytotoxicity against human DMS114 cells
LOX IMVI = assay: Cytotoxicity against human LOX IMVI cells
OVCAR-3 = assay: Cytotoxicity against human OVCAR-3 cells
OVCAR-4 = assay: Cytotoxicity against human OVCAR4 cells
OVCAR-8 = assay: Cytotoxicity against human OVCAR8 cells
SK-OV-3 = assay: Cytotoxicity against human SKOV3 cells
[5] = Cytotoxicity against human RXF631L cells; conditions: RXF 631

Row | Compound | GI50 (ACHN) [µM] | GI50 (St-4) [µM] | GI50 [1] [µM] | GI50 (MKN-7) [µM] | GI50 (MKN-28) [µM] | GI50 (MKN-45) [µM] | GI50 (MKN-74) [µM] | GI50 (DU-145) [µM] | GI50 (OVCAR-5) [µM] | GI50 (PC-3) [µM] | EC50 (P388) [µg/mL] | GI50 [2] [µM] | GI50 [3] [µM] | GI50 [4] [µM] | GI50 (MCF7) [µM] | GI50 (MDA-MB-231) [µM] | GI50 (U-251) [µM] | GI50 (SF-268) [µM] | GI50 (SF-295) [µM] | GI50 (SF-539) [µM] | other results
1 | CC(C)[C@@H](C)/C=C/[C@@H](C)[C@H]1CCC(=O)[C@]23CC(=O)C4=CC(=O)CC[C@]4(C)[C@H]2CC[C@]13C [DANKASTERONE A] | 2.4 | 12.9 | 1.82 | 4.57 | 3.98 | 11 | 4.37 | 4.07 | 2.29 | 5.62 | 2.2 (≈ 5.18 µM) | 4.37 | 2.19 | 3.31 | 3.72 | 5.89 | 3.72 | 2.82 | 3.72 | 2.09 | GI50 (SNB-75): 4.27 µM; GI50 (SNB-78): 3.02 µM; GI50 (HCC 2998): 1.91 µM; GI50 (KM12): 3.72 µM; GI50 (HT-29): 8.13 µM; GI50 (HCT-15): 2.51 µM; GI50 (HCT-116): 2.29 µM; GI50 (NCI-H23): 3.8 µM; GI50 (NCI-H226): 3.8 µM; GI50 (NCI-H522): 2.51 µM; GI50 (NCI-H460): 11 µM; GI50 (A549): 14.1 µM; GI50 (DMS-273): 1.7 µM; GI50 (DMS-114): 1.7 µM; GI50 (LOX IMVI): 2.19 µM; GI50 (OVCAR-3): 2 µM; GI50 (OVCAR-4): 2.4 µM; GI50 (OVCAR-8): 3.63 µM; GI50 (SK-OV-3): 15.8 µM; GI50 [5]: 15.8 µM
2 | CC(C)[C@@H](C)/C=C/[C@@H](C)[C@H]1CCC(=O)[C@]23CC(=O)[C@@H]4CC(=O)CC[C@]4(C)[C@H]2CC[C@]13C [DANKASTERONE B] | – | – | – | – | – | – | – | – | – | – | 2.8 (≈ 6.56 µM) | – | – | – | – | – | – | – | – | – | –
3 | CCCCCC[C@H](C)/C=C(C)/C=C/C(=O)N[C@]1(C=O)C[C@H]2C[C@H]([C@H](C)/C=C/[C@H](C)C(C)C)[C@@]3(C)CC[C@H]4C(=C1C(=O)C1=C[C@@H](O)CC[C@@]14C)[C@@]23O [GYMNASTERONE A] | > 100 | > 100 | > 75.9 | 53.7 | > 38 | > 100 | 28.2 | > 100 | > 100 | > 100 | – | > 100 | > 100 | > 91.2 | 58.9 | > 100 | > 100 | 21.9 | 87.1 | 50.1 | GI50 (SNB-75): > 100 µM; GI50 (SNB-78): 12.9 µM; GI50 (HCC 2998): > 100 µM; GI50 (KM12): > 100 µM; GI50 (HT-29): > 100 µM; GI50 (HCT-15): > 100 µM; GI50 (HCT-116): > 100 µM; GI50 (NCI-H23): > 100 µM; GI50 (NCI-H226): 28.2 µM; GI50 (NCI-H522): 28.2 µM; GI50 (NCI-H460): > 100 µM; GI50 (A549): > 100 µM; GI50 (DMS-273): > 100 µM; GI50 (DMS-114): 72.4 µM; GI50 (LOX IMVI): > 100 µM; GI50 (OVCAR-3): 39.8 µM; GI50 (OVCAR-4): 67.6 µM; GI50 (OVCAR-8): > 100 µM; GI50 (SK-OV-3): > 100 µM; GI50 [5]: 12.9 µM
4 | CC(C)[C@@H](C)/C=C/[C@@H](C)[C@H]1C[C@H]2O[C@]23C2=CC(=O)[C@@H]4CC(=O)CC[C@]4(C)[C@H]2CC[C@]13C [GYMNASTERONE B] | > 100 | > 100 | 45.7 | 47.9 | 60.3 | 72.4 | 83.2 | 28.8 | 44.7 | 89.1 | 1.6 (≈ 3.77 µM) | > 100 | 15.1 | 26.9 | 33.9 | 33.1 | > 100 | > 100 | 36.3 | > 100 | GI50 (SNB-75): 56.2 µM; GI50 (SNB-78): > 100 µM; GI50 (HCC 2998): 51.3 µM; GI50 (KM12): 67.6 µM; GI50 (HT-29): 30.2 µM; GI50 (HCT-15): 69.2 µM; GI50 (HCT-116): 95.5 µM; GI50 (NCI-H23): 70.8 µM; GI50 (NCI-H226): 41.7 µM; GI50 (NCI-H522): 26.9 µM; GI50 (NCI-H460): > 100 µM; GI50 (A549): > 100 µM; GI50 (DMS-273): 41.7 µM; GI50 (DMS-114): 12.9 µM; GI50 (LOX IMVI): 87.1 µM; GI50 (OVCAR-3): 66.1 µM; GI50 (OVCAR-4): 49 µM; GI50 (OVCAR-8): 67.6 µM; GI50 (SK-OV-3): > 100 µM; GI50 [5]: > 100 µM
5 | CC(C)[C@@H](C)/C=C/[C@@H](C)[C@H]1CC(=O)C2=C3C=CC4=C[C@@H](O)CC[C@]4(C)[C@H]3CC[C@@]21C [GYMNASTERONE C] | – | – | – | – | – | – | – | – | – | – | 0.9 (≈ 2.2 µM) | – | – | – | – | – | – | – | – | – | –
6 | CC(C)[C@@H](C)/C=C/[C@@H](C)[C@H]1CC(=O)C2=C3C=CC4=CC(=O)CC[C@]4(C)[C@H]3CC[C@@]21C [GYMNASTERONE D] | – | – | – | – | – | – | – | – | – | – | 2.5 (≈ 6.15 µM) | – | – | – | – | – | – | – | – | – | –
